In paper PMC4128473 (Bioorganic & medicinal chemistry, 2014):

Molecular target: T1, hA3AR (Homo sapiens, UniProt P0DMS8)
T1 sequence (P0DMS8 1-318): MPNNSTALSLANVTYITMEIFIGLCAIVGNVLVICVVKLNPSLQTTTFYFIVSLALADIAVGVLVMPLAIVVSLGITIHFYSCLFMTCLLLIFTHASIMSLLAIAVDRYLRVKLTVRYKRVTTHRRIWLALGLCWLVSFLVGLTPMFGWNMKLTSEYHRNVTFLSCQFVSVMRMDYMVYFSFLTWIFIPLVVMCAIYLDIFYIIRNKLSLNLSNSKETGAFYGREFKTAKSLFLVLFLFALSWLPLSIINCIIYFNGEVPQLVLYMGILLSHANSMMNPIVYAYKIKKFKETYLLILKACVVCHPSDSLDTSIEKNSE
Assay type: cell-based
Conditions: compared to Cl-IB-MECA as reference full agonist

Compound	functional behaviour at hA3AR (cAMP assay)
COc1ccc(Cl)cc1CNc1ncnc2c1ncn2[C@@H]1OC[C@@](O)(CO)[C@H]1O [11c, 1′-[N^6-(2-Methoxy-5-chlorobenzyl)adenin-9-yl]-α-D-apio-L-furanose]	partial agonist
COc1ccc(Cl)cc1CNc1ncnc2c1ncn2[C@@H]1OC[C@](O)(CO)[C@H]1O [10c, 1′-[N^6-(2-Methoxy-5-chlorobenzyl)-adenin-9-yl]-β-D-apio-D-furanose]	inactive
